The values that follow come from publication PMC11063020, “Antiviral and anti-inflammatory activities of chemical constituents from twigs of Mosla chinensis Maxim” (Natural Products and Bioprospecting, 2024).

Series [1] is described as follows: Cytotoxicity (CC50) in macrophages. The note with it: mouse. Type of series: cell-based. The text has this:
Table 3 Inhibitory effect of 9, 22, 23 and 25 on LSP-induced NO production in macrophages | column: CC50^c (µM)

Series [2] concerns NO production in LPS-activated RAW 264.7 cells. The experiment in a line: Nitric oxide production assay in LPS-activated RAW 264.7 cells. The format is cell-based. Conditions: Mus musculus, read-out: IC50 (50% inhibitory concentration), LPS-induced NO production.
Series [3] has as its system A/WSN/33/2009 (H1N1) virus. The experiment in a line: microbe, parasite or virus in culture. Type of series: cell-based. The note with it: Influenza A virus, MDCK, 48 h; read-out: IC50 against A/WSN/33/2009 (H1N1) virus.
The subject of series [4] is nucleoprotein expression in influenza virus-infected MDCK cells. The format is cell-based, influenza A virus. The note with it: 20 at 50 μM, 2, 5 and 8 h.
Series [5] relates to A/WSN/33/2009 (H1N1) virus in MDCK cells. The format is cell-based, influenza A virus. Conditions: 20 at 50 μM, versus DMSO group.
Series [6] concerns the target hemagglutinin (HA) of influenza A/WSN/33/2009 (H1N1) (Influenza A virus, UniProt P03454). Conditions: chicken RBCs without virus.
[7] abbreviates: RAW264.7, LPS (1 μg/ml) activated RAW 264.7 cells, 24 h.
Setting [8] is: macrophages, read-out: CC50 (50% cytotoxic concentration).

SMILES strings stand for the structures. pIC50: −log10 of the molar value. Like-named read-outs stand apart in the source and are kept apart here. A value given as a limit tells only on which side of the number the result lay.

Sequence of hemagglutinin (HA) of influenza A/WSN/33/2009 (H1N1) (P03454 18-342 limits assumed): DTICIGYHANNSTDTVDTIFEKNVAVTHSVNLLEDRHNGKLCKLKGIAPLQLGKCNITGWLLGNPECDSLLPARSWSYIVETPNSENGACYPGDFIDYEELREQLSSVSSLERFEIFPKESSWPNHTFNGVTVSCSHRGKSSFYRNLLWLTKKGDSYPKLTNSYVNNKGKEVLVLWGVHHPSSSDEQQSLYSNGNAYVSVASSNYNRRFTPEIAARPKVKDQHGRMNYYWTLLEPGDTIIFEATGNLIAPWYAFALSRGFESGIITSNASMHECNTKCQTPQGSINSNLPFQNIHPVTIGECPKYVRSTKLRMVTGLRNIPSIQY
Sequence of hemagglutinin (HA) of influenza A/WSN/33/2009 (H1N1) (P03454 344-565 partner limits assumed): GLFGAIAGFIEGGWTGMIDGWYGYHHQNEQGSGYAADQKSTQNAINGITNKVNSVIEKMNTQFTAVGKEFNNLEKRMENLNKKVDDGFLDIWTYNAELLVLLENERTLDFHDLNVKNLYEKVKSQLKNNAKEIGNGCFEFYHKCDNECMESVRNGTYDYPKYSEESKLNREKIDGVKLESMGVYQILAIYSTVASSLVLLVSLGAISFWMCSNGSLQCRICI

In the case of `O=c1cc(-c2ccc(O)c(O)c2)oc2cc(O)cc(O)c12` [Compound 9, luteolin], in series [1], the CC50 is above 50 µM. Further, the pIC50 in series [2] (setting [7]) is 4.64.

`COC(=O)[C@H]1c2c(/C=C/C(=O)O[C@H](Cc3ccc(O)c(O)c3)C(=O)O)ccc(O)c2O[C@@H]1c1ccc(O)c(O)c1` [Compound 20, methyl lithospermate]: in series [3], the pIC50 was 4.69. Moreover, the “nucleoprotein protein expression (western blot)” value in series [4] was “dramatically reduce the nucleoprotein protein expression”. Further, the “virus population / nucleoprotein distribution in infected cells (fluorescence microscopy)” value in series [5] was “influenza virus could be inhibited”. For the same molecule, the “effect of the compound alone on red blood cells” value in series [6] was “no effect on red blood cells”.

For the molecule `COC(=O)[C@H]1Oc2ccc(/C=C/C(=O)O/C=C\c3ccc(O)c(O)c3)cc2O[C@H]1c1ccc(O)c(O)c1` [Compound 22, hyprhombins A], in series [1] (setting [8]), the CC50 was above 50 µM. Moreover, in series [2] (setting [7]), the pIC50 is 4.69.

Turning to `COC(=O)C[C@@H](OC(=O)/C=C/c1ccc(O)c(O)c1)c1ccc(O)c(O)c1` [Compound 23, 3-(3ʹʹʹ,4ʹʹʹ-dihydroxyphenyl)-acrylic acid 1-(3ʹʹ,4ʹʹ-dihydroxyphenyl)-2-methoxycarbonylethyl ester], in series [1] (setting [8]), the CC50 was above 50 µM. In addition, the pIC50 in series [2] (setting [7]) was 4.56.

As to `COC(=O)[C@H](Cc1ccc(O)c(O)c1)OC(=O)/C=C/c1ccc(O)c2oc(-c3ccc(O)c(O)c3)cc12` [Compound 25, methyl salvianol acid C], the CC50 in series [1] (setting [8]) was above 50 µM. The pIC50 in series [2] (setting [7]) was 4.52.

Regarding `[H]/N=C(/NC)NCCC[C@H](N)C(=O)O` [L-NMMA, reference compound], the CC50 in series [1] (setting [8]) is above 50 µM. The pIC50 in series [2] (RAW264.7, 24 h) is 4.66.

Regarding `CCOC(=O)C1=C[C@@H](OC(CC)CC)[C@H](NC(C)=O)[C@@H](N)C1` [oseltamivir, reference compound], the pIC50 in series [3] is 5.16.
